From patent US20250230184A1, “COMPOUND, PHARMACEUTICAL COMPOSITION, KIT FOR CAPPED RNA TRANSCRIPT, AND METHOD FOR IN VITRO” (Industrial Technology Research Institute, priority 2023, published 2025)

Columns and labels:
carrier RNA [1] = test: Capping efficiency evaluation (2) using IP-RP-UPLC (1); conditions: UV260
Description: (§1) Nuclease-free water was added into the lyophilized carrier RNA to obtain an RNA stock solution (with a concentration of 2 μg/L). Next, deionized water (0.1 mL) and RNA stock solution (10 μL) were mixed with cap analogs (compound (3) and Jena-ARCA cap analog (product number #NU-855L, commercially available from Jena Bioscience)) individually to obtain the samples.
Next, the sample (10 μL) was injected into a column to perform ion-pair reverse-phase ultra-performance liquid chromatography (IP-RP UPLC) using the solution gradient outlined in Table 6 (45 minutes). The absorbance at the UV260 wavelength was monitored. The column used was an oligonucleotide column (Acquity Premier Oligonucleotide C18, manufactured and sold by Waters Corp). A water-based buffer solution (triethylamine acetate buffer, pH 7.0, concentration 100 mM) was used as Solution A, and an acetonitrile (ACN)-based buffer solution (composed of Solution A and ACN in a 3:1 volume ratio) was used as Solution B.

T7 enzyme = T7 enzyme (Escherichia phage T7, UniProt P00573); test: Evaluation of mRNA yield by in vitro transcription (IVT) with cap analogs; type: biochemical; conditions: input DNA 5 μg
Description: mRNA was produced using in vitro transcription (IVT) technology with cap analogs of Compound (25), (26) and (33) to (35) of the disclosure, as well as the TriLink CleanCap cap analog (product number #N-7113). First, the DNA template plasmid required for IVT was prepared, followed by an enzymatic reaction using T7 enzyme to synthesize mRNA.

40-nt mRNAs = test: Capping efficiency evaluation (3) using IP-RP-UPLC, 40-nt mRNAs from IVT; type: biochemical; conditions: 40-nt mRNAs by IVT with T7 enzyme, UV 260 nm
Description: mRNA was produced using in vitro transcription (IVT) technology with cap analogs of Compound (25), (33) to (35) of the disclosure herein, as well as the TriLink CleanCap cap analog (product number #N-7113). The DNA template used in this process consisted of 40-nucleotide (nt) fragments, and mRNA was synthesized through an enzymatic reaction using T7 enzyme to produce 40-nt mRNAs.
Nuclease-free water was added to the lyophilized carrier RNA to obtain an RNA stock solution (with concentration of 2 μg/L). Deionized water (0.1 mL) and RNA stock solution (10 μL) were then mixed with the 40-nt mRNAs obtained by aforementioned cap analogs to obtain the samples.
Next, 10 μL of each sample was injected into a column and analyzed using ion-pair reversed-phase ultra-performance liquid chromatography (IP-RP UPLC) (45 minutes) according to the solution gradient listed in Table 7. The absorbance value of UV 260 nm was monitored, and the capping efficiency (%) was evaluated based on the obtained results, as shown in Table 8. The column used for the analysis was an oligonucleotide column (Acquity Premier Oligonucleotide C18, manufactured and sold by Waters Corp). A water-based buffer solution (triethylammonium acetate buffer, pH 7.0, concentration 100 mM) was used as Solution A, while an acetonitrile (ACN)-based buffer solution (a mixture of Solution A and acetonitrile in a 3:1 volume ratio) was used as Solution B.

HEK293 cells = test: Transfection efficiency evaluation (luciferase activity); type: cell-based; conditions: luciferase mRNA capped with the cap analog, 50 ng per well, 5 hours, compared with Jena-ARCA
Description: as §1, with “added to” for “added into”, “(with” for “(with a”, “(compound (3), compounds (25), (33) to (35),” for “(compound (3)”, “Jena-ARCA capping” for “Jena-ARCA cap”, “analog (number” for “analog (product number”
HEK293 cells were seeded at 4×10^4 cells per well in a 96-well culture plate and cultured for 24 hours for attachment. Next, each well was treated with transfection reagent (catalog #Lipofectamine MessengerMax, commercially available from Thermo Fisher, 0.3 μL per well) and samples (50 ng per well). The cells were incubated in a 37° C. incubator with 5% carbon dioxide for 5 hours. Subsequently, 100 μL of signal-activating fluorescence detection reagent (One-Glo Luciferase) was added to each well and incubated at room temperature for 5 minutes to measure luciferase activity. Then, 100 μL of the reaction mixture was pipetted and the fluorescence values were recorded using a microplate reader (GloMax Microplate Reader).

carrier RNA [2] = test: Capping efficiency evaluation (1) using anti-cap antibody; conditions: Anti-7-methylguanosine (m7G)-Cap mAb, compared with commercially available ARCA
Description: Nuclease-free water was added into the lyophilized carrier RNA to obtain an RNA stock solution (with a concentration of 2 μg/L). Next, the RNA stock solution with various cap analogs (Compound (3) and Jena-ARCA cap analog, with trade number #NU-855L, commercially available from Jena Bioscience) was heated individually at 80° C. for 2 minutes, and then cooled at 0° C. for 5 minutes. Next, the result was placed on a nitrocellulose membrane and exposed to UV illumination to obtain a crosslinked RNA sample.
Then, 2.5% skim milk solution was added to block the nitrocellulose membrane with crosslinked RNA sampleat room temperature for 30 minutes. Thereafter, the primary antibody (Anti-7-methylguanosine (m7G)-Cap mAb) was diluted with the 2.5% skim milk solution and incubated at room temperature for 1 hour. Next, the sample was washed three times with TBST buffer (10 minutes each time). The result was reacted with chemiluminescent reagent (Femto) for 1-3 minutes. Finally, an image analysis of the result was performed via a chemiluminescent imaging system (Fujifilm LAS 4000).

[3] = system: HEK293 (RIG-I+)-IFNβ-fLuc cells; test: Cell immunogenicity evaluation (luciferase reporter); type: cell-based; conditions: luciferase mRNA capped with the cap analog, 200 ng per well, 5 hours, compared with Jena-ARCA
Description: HEK293 (RIG-I^+)-IFNβ-fLuc cells were seeded at 1×10^4 cells per well in a 96-well culture plate and cultured for 24 hours for attachment. Each well was treated with transfection reagent (catalog #Lipofectamine MessengerMax, commercially available from Thermo Fisher, 0.15 μL per well) and samples (200 ng per well). The cells were incubated in a 37° C. incubator with 5% carbon dioxide for 5 hours. Next, 100 µL of signal-activating fluorescence detection reagent (One-Glo Luciferase) was added to each well and incubated at room temperature for 5 minutes to measure luciferase activity. Next, 180 μL of the reaction mixture was pipetted, and the fluorescence values were recorded using a microplate reader (GloMax Microplate Reader).

Chain of T7 enzyme (P00573 whole entry): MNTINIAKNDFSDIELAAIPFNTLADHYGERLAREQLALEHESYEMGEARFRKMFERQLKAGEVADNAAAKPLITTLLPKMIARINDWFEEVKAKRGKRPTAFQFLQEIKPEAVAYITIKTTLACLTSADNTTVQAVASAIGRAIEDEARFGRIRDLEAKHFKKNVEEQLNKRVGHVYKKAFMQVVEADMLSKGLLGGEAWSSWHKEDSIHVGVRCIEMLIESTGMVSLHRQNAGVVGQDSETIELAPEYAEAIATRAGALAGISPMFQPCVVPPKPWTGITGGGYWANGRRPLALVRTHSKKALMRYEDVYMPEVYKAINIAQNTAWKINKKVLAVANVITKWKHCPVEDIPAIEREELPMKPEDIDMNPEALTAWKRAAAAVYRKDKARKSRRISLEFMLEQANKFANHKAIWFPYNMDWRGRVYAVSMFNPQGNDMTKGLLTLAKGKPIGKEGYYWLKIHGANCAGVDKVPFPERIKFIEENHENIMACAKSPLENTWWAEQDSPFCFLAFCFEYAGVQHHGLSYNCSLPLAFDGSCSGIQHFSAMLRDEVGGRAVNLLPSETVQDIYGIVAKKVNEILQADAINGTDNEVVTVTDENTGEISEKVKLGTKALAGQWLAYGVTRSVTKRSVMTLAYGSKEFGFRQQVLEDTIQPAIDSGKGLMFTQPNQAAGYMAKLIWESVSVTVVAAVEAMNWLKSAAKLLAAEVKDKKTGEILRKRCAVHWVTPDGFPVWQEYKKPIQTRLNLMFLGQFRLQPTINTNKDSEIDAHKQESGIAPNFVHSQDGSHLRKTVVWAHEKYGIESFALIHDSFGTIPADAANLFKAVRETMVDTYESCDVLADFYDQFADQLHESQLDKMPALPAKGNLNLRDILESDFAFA

SMILES | capping efficiency (carrier RNA [1]) | mRNA (T7 enzyme) [µg] | Capping efficiency (%) (40-nt mRNAs) | nucleic acid translation and protein expression (luciferase activity) (HEK293 cells) | capping capability (chemiluminescent image analysis) (carrier RNA [2]) | immune response (luciferase activity) [3]
CO[C@H]1[C@@H](O)[C@H](n2c[n+](C)c3c(=O)[nH]c(N)nc32)O[C@@H]1COP(=O)(O)OP(=O)(O)OP(=O)(O)OC[C@H]1O[C@@H](n2cnc3c(=O)[nH]c(N)nc32)[C@H](O)[C@@H]1O [Jena-ARCA, reference compound] | approximately 63% |  |  |  |  | 
CNc1ncnc2c1ncn2[C@@H]1O[C@H](COP(=O)(O)OP(=O)(O)OP(=O)(O)OC[C@@]23CN(S(C)(=O)=O)C([C@H](n4c[n+](C)c5c(=O)[nH]c(N)nc54)O2)[C@H]3OC)C(OP(=O)(O)OC[C@H]2O[C@@H](n3cnc4c(=O)[nH]c(N)nc43)[C@@H](O)C2O)[C@@H]1OC (stereo partly shown) [Compound (35)] |  | 138 | 81.4 |  |  | 
CO[C@@H]1C(O)[C@H](n2c[n+](C)c3c(=O)[nH]c(N)nc32)O[C@@H]1COP(=O)(O)OP(=O)(O)OP(=O)(O)OC[C@]12CN(C)[C@@H](C1OP(=O)(O)OC[C@H]1O[C@@H](n3cnc4c(=O)[nH]c(N)nc43)[C@@H](O)C1O)[C@H](n1cnc3c(N)ncnc31)O2 (stereo partly shown) [Compound (25)] |  | 167 | 71.3 | superior nucleic acid translation and protein expression |  | 
COC1[C@@H](COP(=O)(O)OP(=O)(O)OP(=O)(O)OC[C@]23CN(S(C)(=O)=O)[C@@H](C2OP(=O)(O)OC[C@H]2O[C@@H](n4cnc5c(=O)[nH]c(N)nc54)[C@@H](O)C2O)[C@H](n2cnc4c(N)ncnc42)O3)O[C@@H](n2c[n+](C)c3c(=O)[nH]c(N)nc32)[C@H]1O (stereo partly shown) [Compound (26)] |  | 95 |  |  |  | 
COC1[C@@H]2OC[C@]1(COP(=O)(O)OP(=O)(O)OP(=O)(O)OC[C@H]1O[C@@H](n3cnc4c(=O)[nH]c(N)nc43)[C@@H](O)C1O)O[C@H]2n1c[n+](C)c2c(=O)[nH]c(N)nc21 (stereo partly shown) [Compound (3)] | approximately 60.8% |  |  | superior nucleic acid translation and protein expression | comparable to that of commercially available ARCA | lower immune response
CO[C@@H]1C2OC[C@]1(COP(=O)(O)OP(=O)(O)OP(=O)(O)OC[C@H]1O[C@@H](n3cnc4c(N)ncnc43)[C@@H](OC)C1OP(=O)(O)OC[C@H]1O[C@@H](n3cnc4c(=O)[nH]c(N)nc43)[C@@H](O)C1O)O[C@H]2n1c[n+](C)c2c(=O)[nH]c(N)nc21 (stereo partly shown) [Compound (33)] |  | 134 | 100 |  |  | 
